Reference: patent US5659012A, “Peptide which binds SH2 domains of protein tyrosine phosphatase SH-PTP1” (Whitehead Institute for Biomedical Research, priority 1995, dated 1997)

Assays:
[1] = test system: 32D cells expressing the EPO-R mutant Y429,431F; experiment: Proliferation assay (3H-Thymidine incorporation), EPO-dependent proliferation; assay type: cell-based
Protocol: (§1) FIG. 2 is a graphic illustration of EPO-dependent proliferation of 32D cells expressing the wt EPO-R and the EPO-R mutant Y429, 431F. […] Each data point represents the mean of triplicate determinations±standard deviation.
(§2) To assess the role of SH-PTP1 in regulating proliferative signals generated by the EPO-R, the proliferation of 32D cells expressing wt EPO-R or EPO-R Y429,431F was measured. […] When grown in EPO, the half-maximal proliferation of pools of 32D cells expressing the wt EPO-R required 0.25 units EPO/ml and maximal proliferation required about 1 units/ml (FIG. 2). […] Pools of 32D cells expressing the mutant EPO-R Y429,431F achieved half-maximal proliferation in as little as 0.025 units EPO/ml, reaching a maximum rate at 0.1 units/ml (FIG. 2). At the highest EPO concentrations employed, the rate of proliferation of cell pools expressing the wt EPO-R or the EPO-R mutant Y429,431F was the same.
(§3) Proliferation assays were performed in 96 well plates with 200 μl/well. 5×10^4 32D cells/ml were seeded in the presence of indicated amounts of cytokines (EPO O--5 units/ml; IL3 0-100 units/ml). After 48 hours, 1 μCi 3H-Thymidine (DuPont NEN)/well was added for another 3 hours. The labeled cells were then harvested by a 96 well plate harvester (Scantron Instruments Inc.) and the amount of radioactively labeled DNA was quantitated in a scintillation counter.

[2] = test system: 32D cells expressing the wt EPO-R; experiment: as above; assay type: cell-based; conditions: pools of 32D cells expressing wt EPO-R
Protocol: as §1, §2, §3

[3] = pools of 32D cells expressing mutant EPO-R Y429,431F

Erythropoietin [EPO]
amount of EPO allowing proliferation relative to the normal amount ([1]; mutant EPO-R unable to bind SH-PTP1 versus wt EPO-R): one-fifth to one-tenth | EPO giving half-maximal proliferation [1, 3]: 0.025 units EPO/ml | EPO giving maximum rate of proliferation [1, 3]: 0.1 units/ml | EPO required for maximal proliferation [2]: about 1 units/ml | EPO required for half-maximal proliferation ([2]; 48 h + 3 h 3H-Thymidine): 0.25 units EPO/ml
